This note sets out measurements from patent US4818749A, “Carboxyalkyl dipeptides and medical use thereof in treating hypertension and congestive heart failure” (Schering Corporation, priority 1981, dated 1989).

SMILES strings stand for the structures.

The target in one test is T1, angiotensin converting enzyme (ACE) (Rattus norvegicus, UniProt P47820).
T1 construct: Drugs were injected intravenously; from tissue; host or cells: whole living animal (anesthetized Sprague-Dawley rat); no enzyme isolated
T1 sequence (P47820 36-1313): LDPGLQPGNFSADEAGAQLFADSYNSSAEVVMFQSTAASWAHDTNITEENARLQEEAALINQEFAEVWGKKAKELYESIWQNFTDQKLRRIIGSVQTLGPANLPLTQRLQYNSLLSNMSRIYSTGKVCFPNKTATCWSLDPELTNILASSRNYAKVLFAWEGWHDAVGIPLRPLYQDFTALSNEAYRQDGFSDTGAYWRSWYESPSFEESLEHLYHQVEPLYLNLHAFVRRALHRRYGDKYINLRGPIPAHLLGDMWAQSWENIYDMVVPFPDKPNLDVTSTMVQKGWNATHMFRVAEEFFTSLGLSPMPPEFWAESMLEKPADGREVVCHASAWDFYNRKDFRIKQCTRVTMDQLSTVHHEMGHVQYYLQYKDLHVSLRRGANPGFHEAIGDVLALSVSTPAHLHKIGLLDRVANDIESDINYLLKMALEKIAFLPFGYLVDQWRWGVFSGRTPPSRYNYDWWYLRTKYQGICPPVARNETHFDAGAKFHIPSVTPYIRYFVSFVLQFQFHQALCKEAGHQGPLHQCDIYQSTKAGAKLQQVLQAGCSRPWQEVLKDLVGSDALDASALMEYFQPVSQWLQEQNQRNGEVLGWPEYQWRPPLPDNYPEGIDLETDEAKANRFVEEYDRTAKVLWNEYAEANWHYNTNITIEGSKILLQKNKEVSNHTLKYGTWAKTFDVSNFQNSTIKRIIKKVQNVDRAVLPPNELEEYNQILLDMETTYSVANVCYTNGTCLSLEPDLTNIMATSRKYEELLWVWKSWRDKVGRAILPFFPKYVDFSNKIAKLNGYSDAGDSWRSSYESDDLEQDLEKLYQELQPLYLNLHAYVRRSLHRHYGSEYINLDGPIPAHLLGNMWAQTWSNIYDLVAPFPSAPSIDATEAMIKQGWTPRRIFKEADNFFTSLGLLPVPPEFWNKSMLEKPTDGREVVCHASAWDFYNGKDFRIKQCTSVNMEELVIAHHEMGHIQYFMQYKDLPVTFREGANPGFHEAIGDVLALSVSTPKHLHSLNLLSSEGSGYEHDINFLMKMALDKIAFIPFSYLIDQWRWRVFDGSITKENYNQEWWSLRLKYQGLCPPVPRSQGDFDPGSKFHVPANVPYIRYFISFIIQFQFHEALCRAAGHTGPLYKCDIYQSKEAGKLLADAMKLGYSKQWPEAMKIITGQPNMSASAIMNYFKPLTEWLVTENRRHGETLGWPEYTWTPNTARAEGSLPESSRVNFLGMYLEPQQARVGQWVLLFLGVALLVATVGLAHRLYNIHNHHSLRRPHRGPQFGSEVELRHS
Briefly: ACE inhibition in anesthetized rats: inhibition of angiotensin I pressor response after iv test drug. In kind it is in vivo, Sprague-Dawley rats. As to conditions: anesthetized Sprague-Dawley rats; drug iv; angiotensin I challenge 5 min after dosing; blood pressure response as percent of control; linear regression.
As for `CCOC(=O)[C@H](CSCc1ccc(C)cc1)NC(C)C(=O)N1C2CCCCC2C[C@H]1C(=O)O` (relative stereo) [4-methylbenzyl-thiomethyl, 1-[N-[1(R)-Ethoxycarbonyl-2-(4-methylbenzylthio)ethyl]-(R,S)-alanyl]-cis,syn-perhydroindole-2(S)-carboxylic acid], the ID50 is 88 µg/kg.
Still for that read-out and setting: the result for `CCOC(=O)[C@H](CSCc1ccccc1)NC(C)C(=O)N1C2CCCCC2C[C@H]1C(=O)O.Cl` (relative stereo) [Compound 3, 1-[N-[1(R)-Ethoxycarbonyl-2-(benzylthio)ethyl]-(R,S)-alanyl]-cis,syn-perhydroindole-2(S)-carboxylic acid, hydrochloride] reads 30 µg/kg; that for `CCOC(=O)[C@H](CSCc1ccccc1)N[C@@H](C)C(=O)N1[C@H](C(=O)O)C[C@@H]2CCCC[C@@H]21` (relative stereo) [Compound 4, 1-[N-[1(R)-EthoxYcarbonyl-2-(benzylthio)ethyl]-(S)-alanyl]-cis,syn-perhydroindole-2(S)-carboxylic acid], 29 µg/kg.
In turn, `Br.CCOC(=O)[C@H](CSCc1ccccc1)N[C@H](C)C(=O)N1[C@H](C(=O)O)C[C@@H]2CCCC[C@@H]21` (relative stereo) [Compound 5, 1-[N-[1(R)-Ethoxycarbonyl-2-(benzylthio)ethyl]-(R)-alanyl]-cis,syn-perhydroindole-2(S)-carboxylic acid, hydrobromide] gave an ID50 of 350 µg/kg.
In turn, `CCOC(=O)[C@H](CSCc1ccc2ccccc2c1)N[C@@H](C)C(=O)N1[C@H](C(=O)O)C[C@@H]2CCCC[C@@H]21.Cl` (relative stereo) [Compound 6, 1-[N-[1(R)-Ethoxycarbonyl-2-(2-naphthylmethylthio)ethyl]-(S)-alanyl]-cis,syn-perhydroindole-2(S)-carboxylic acid hydrochloride] gave an ID50 greater than 100 µg/kg.
Take `CCOC(=O)[C@H](CSCc1ccc2ccccc2c1)N[C@H](C)C(=O)N1C2CCCCC2C[C@H]1C(=O)O.Cl` (relative stereo) [Compound 7, 1-[N-[1(R)-Ethoxycarbonyl-2-(2-naphthylmethylthio)ethyl]-(R)alanyl]-cis,syn-perhydroindole-2(S)-carboxylic acid hydrochloride]: the ID50 is > 1,000 μg/kg.
Still for that read-out and setting: with `CCOC(=O)[C@H](CSCCc1ccccc1)N[C@@H](C)C(=O)N1C2CCCCC2C[C@H]1C(=O)O.Cl` (relative stereo) [Compound 8, 1-[N-[1(R)-Ethoxycarbonyl-2-(phenylethylthio)ethyl]-(S)alanyl]-cis,syn-perhydroindole-2(S)-carboxylic acid hydrochloride] the figure was 32 µg/kg; with `CCOC(=O)[C@H](CSCCc1ccccc1)N[C@H](C)C(=O)N1[C@H](C(=O)O)C[C@@H]2CCCC[C@@H]21.Cl` (relative stereo) [Compound 9, 1-[N-[1(R)-Ethoxycarbonyl-2-(phenylethylthio)ethyl]-(R)alanyl]-cis,syn-perhydroindole-2(S)-carboxylic acid hydrochloride], > 1,000 μg/kg; with `C[C@H](N[C@@H](CCc1ccc(C(=O)O)cc1)C(=O)O)C(=O)N1C2CCCCC2C[C@H]1C(=O)O` (relative stereo) [Compound 10, 1-[N-[1(S)-Carboxy-3-(4-carboxyphenyl)propyl]-(S)-alanyl]-cis,syn-perhydroindole-2(S)-carboxylic acid], 11 µg/kg.
On the same count and under the same terms, the result for `CCOC(=O)[C@H](CSCc1ccccc1)NC(C)C(=O)N1CCC[C@H]1C(=O)O.Cl` (stereo partly drawn) [Compound 1, N-(1(R)-Ethoxycarbonyl-2-benzylthioethyl)-(R,S)-alanyl-(S)-proline hydrochloride] reads 66 µg/kg; that for `CCOC(=O)[C@H](COCc1ccccc1)NC(C)C(=O)N1CCC[C@H]1C(=O)O.Cl` (stereo partly drawn) [Compound 2, N-(1(S)-Ethoxycarbonyl-2-benzyloxyethyl)-(R,S)-alanyl-(S)-proline hydrochloride], 130 µg/kg; that for `C[C@H](N[C@@H](CCc1ccccc1)C(=O)O)C(=O)N1CCC[C@H]1C(=O)O` [enalapril diacid, reference compound], 15 ± 3 µg/kg.

The same test, now with this note: rat, iv, 5 min, read-out: ID50.
For `CCOC(=O)[C@H](CCc1ccccc1)N[C@@H](C)C(=O)N1CCC[C@H]1C(=O)O` [enalapril, reference compound], the ED50 came to 0.057 ± 0.007 mg/kg.
